ChEMBL document CHEMBL4665751, “Discovery of Clinical Candidate (5-(3-(4-Chlorophenoxy)prop-1-yn-1-yl)-3-hydroxypicolinoyl)glycine, an Orally Bioavailable Prolyl Hydroxylase Inhibitor for the Treatment of Anemia” (J Med Chem, 2020)

Assays:
[1] = Nephrotoxicity in Sprague-Dawley rat assessed as change in urea level in blood at 15 to 200 mg/kg, po administered every alternate days for 2 weeks measured on day 14; assay type: toxicity, organism-based; conditions: in vivo, 336 h, dose 15-200 mg/kg, time 14 day
[2] = AUC (0 to infinity) in Beagle dog at 2 mg/kg, ig by LC-MS/MS analysis; assay type: ADME, organism-based, Canis lupus familiaris; parameters: route […], time infinity, dose 2 mg/kg; conditions: in vivo, po
[3] = Hepatotoxicity in male Sprague-Dawley rat assessed as change in albumin level at 15 to 200 mg/kg, po administered every alternate days for 2 weeks measured on day 14; assay type: toxicity, organism-based; conditions: in vivo, 336 h, dose 15-200 mg/kg, time 14 day
[4] = Half-life in rat hepatocytes at 100 uM incubated up to 120 mins by LC-MS/MS analysis; assay type: ADME, cell-based, Hepatocyte
[5] = Clearance in Sprague-Dawley rat at 1 mg/kg, iv by LC-MS/MS analysis; assay type: ADME, organism-based; conditions: in vivo
[6] = Nephrotoxicity in Sprague-Dawley rat assessed as change in creatinine level in blood at 15 to 200 mg/kg, po administered every alternate days for 2 weeks measured on day 14; assay type: toxicity, organism-based; conditions: in vivo, 336 h, dose 15-200 mg/kg, time 14 day
[7] = Acute toxicity in Sprague-Dawley rat assessed as change in ratio of liver to body weight at 15 to 200 mg/kg, po administered every alternate days for 2 weeks measured on day 14; assay type: organism-based; conditions: in vivo, 336 h, dose 15-200 mg/kg, time 14 day
[8] = Acute toxicity in Sprague-Dawley rat assessed as change in ratio of thymus to body weight at 15 to 200 mg/kg, po administered every alternate days for 2 weeks measured on day 14; assay type: organism-based; conditions: in vivo, 336 h, dose 15-200 mg/kg, time 14 day
[9] = Apparent volume of distribution in Sprague-Dawley rat at 1 mg/kg, iv by LC-MS/MS analysis; assay type: ADME, organism-based; conditions: in vivo, read-out: Vz
[10] = Half-life in Beagle dog at 2 mg/kg, ig by LC-MS/MS analysis; assay type: ADME, organism-based, Canis lupus familiaris; conditions: in vivo, po
[11] = Cmax in Sprague-Dawley rat at 2 mg/kg, ig by LC-MS/MS analysis; assay type: ADME, organism-based; parameters: route […], dose 2 mg/kg; conditions: in vivo, po
Egl nine homolog 1 [12] = biological target: T1, Egl nine homolog 1 (Homo sapiens, UniProt Q9GZT9); experiment: Inhibition of FITC-HIF1alpha (556 to 574 residues) binding to PHD2 (181 to 426 residues) (unknown origin) by fluorescence polarization assay
Target sequence in this assay (Q9GZT9 whole entry, the tested form may be a part): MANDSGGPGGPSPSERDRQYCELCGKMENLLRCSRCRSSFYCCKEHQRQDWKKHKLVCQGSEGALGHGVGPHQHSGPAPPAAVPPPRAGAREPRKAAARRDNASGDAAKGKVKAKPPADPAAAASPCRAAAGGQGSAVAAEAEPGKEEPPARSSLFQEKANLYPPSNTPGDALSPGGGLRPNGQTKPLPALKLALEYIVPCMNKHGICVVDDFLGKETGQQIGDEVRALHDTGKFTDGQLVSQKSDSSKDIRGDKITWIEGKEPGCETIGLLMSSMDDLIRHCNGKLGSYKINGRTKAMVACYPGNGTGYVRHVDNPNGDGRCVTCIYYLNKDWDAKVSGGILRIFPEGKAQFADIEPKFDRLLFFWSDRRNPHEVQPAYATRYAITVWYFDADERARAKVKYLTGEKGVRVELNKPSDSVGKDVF

[13] = Hepatotoxicity in male Sprague-Dawley rat assessed as change in albumin/globulin ratio at 15 to 200 mg/kg, po administered every alternate days for 2 weeks measured on day 14; assay type: toxicity, organism-based; conditions: in vivo, 336 h, dose 15-200 mg/kg, time 14 day
[14] = Half-life in human liver microsome at 1 uM preincubated for 5 mins followed by NADPH addition measured up to 120 mins by LC-MS/MS analysis; assay type: ADME; conditions: liver microsomes, time <=125 min
[15] = Acute toxicity in Sprague-Dawley rat assessed as change in ratio of brain to body weight at 15 to 200 mg/kg, po administered every alternate days for 2 weeks measured on day 14; assay type: organism-based; conditions: in vivo, 336 h, dose 15-200 mg/kg, time 14 day
[16] = Acute toxicity in Sprague-Dawley rat assessed as change in ratio of heart to body weight at 15 to 200 mg/kg, po administered every alternate days for 2 weeks measured on day 14; assay type: organism-based; conditions: in vivo, 336 h, dose 15-200 mg/kg, time 14 day
Egl nine homolog 1 [17] = biological target: T1, Egl nine homolog 1; experiment: Inhibition of PHD2 in human Hep3B cells assessed as upregulation of EPO mRNA expression at 50 uM measured after 10 hrs by Trizol reagent based qRT-PCR analysis relative to control; assay type: cell-based
Target sequence in this assay (Q9GZT9 2-426 limits assumed): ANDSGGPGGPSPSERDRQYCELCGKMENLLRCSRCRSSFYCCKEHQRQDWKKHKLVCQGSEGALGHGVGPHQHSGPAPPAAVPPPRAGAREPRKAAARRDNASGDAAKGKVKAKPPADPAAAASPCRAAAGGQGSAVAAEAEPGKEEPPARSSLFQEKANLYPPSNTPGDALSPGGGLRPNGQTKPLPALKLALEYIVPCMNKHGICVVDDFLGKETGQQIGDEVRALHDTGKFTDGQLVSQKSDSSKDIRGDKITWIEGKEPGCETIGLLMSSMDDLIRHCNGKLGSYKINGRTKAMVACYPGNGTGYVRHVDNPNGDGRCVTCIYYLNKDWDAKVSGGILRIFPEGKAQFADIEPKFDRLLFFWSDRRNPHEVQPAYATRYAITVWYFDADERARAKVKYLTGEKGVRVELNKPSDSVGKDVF

[18] = AUC (0 to t) in Beagle dog at 0.5 mg/kg, iv by LC-MS/MS analysis; assay type: ADME, organism-based, Canis lupus familiaris; parameters: dose 0.5 mg/kg; conditions: in vivo
Mus musculus = experiment: In vivo inhibition of PHD2 in po dosed C57BL/6 mouse assessed as upregulation of EPO plasma level administered 4 times for 3 days by ELISA; assay type: functional, organism-based; conditions: dose mg/kg 5-50, time 3.0 day
[19] = Oral bioavailability in Beagle dog at 2 mg/kg by LC-MS/MS analysis; assay type: ADME, organism-based, Canis lupus familiaris; conditions: in vivo
HUVEC = experiment: Cytotoxicity against human HUVEC cells assessed as reduction in cell viability at 10 to 100 uM incubated for 72 hrs by MTT assay; assay type: cell-based; conditions: dose 10-100 µM
[20] = Hepatotoxicity in male Sprague-Dawley rat assessed as change in alanine aminotransferase level in blood at 15 to 200 mg/kg, po administered every alternate days for 2 weeks measured on day 14; assay type: toxicity, organism-based; conditions: in vivo, 336 h, dose 15-200 mg/kg, time 14 day
[21] = Half-life in dog liver microsome at 1 uM preincubated for 5 mins followed by NADPH addition measured up to 120 mins by LC-MS/MS analysis; assay type: ADME, Canis lupus familiaris; conditions: liver microsomes, time <=125 min
Egl nine homolog 1 [22] = biological target: T1, Egl nine homolog 1; experiment: Inhibition of PHD2 in human Hep3B cells assessed as increase in EPO expression measured after 24 hrs by ELISA; assay type: cell-based; conditions: dose microM 5-50, time 24.0 hrs
Target sequence in this assay (Q9GZT9 2-426 limits assumed): as above

Egl nine homolog 1 [23] = biological target: T1, Egl nine homolog 1; experiment: Inhibition of PHD2 in human MCF7 cells assessed as upregulation of HIFalpha expression at 50 uM incubated for 24 hrs by firefly/renilla luciferase reporter gene assay relative to control; assay type: cell-based
Target sequence in this assay (Q9GZT9 2-426 limits assumed): as above

[24] = Hepatotoxicity in male Sprague-Dawley rat assessed as change in globulin level at 15 to 200 mg/kg, po administered every alternate days for 2 weeks measured on day 14; assay type: toxicity, organism-based; conditions: in vivo, 336 h, dose 15-200 mg/kg, time 14 day
[25] = Acute toxicity in Sprague-Dawley rat assessed as change in growth at 15 to 200 mg/kg, po administered every alternate days for 14 days; assay type: organism-based; conditions: in vivo, 336 h, dose 15-200 mg/kg, time 14 day
[26] = Hepatotoxicity in male Sprague-Dawley rat assessed as change in aspartate aminotransferase level in blood at 200 mg/kg, po administered every alternate days for 2 weeks measured on day 14; assay type: toxicity, organism-based; conditions: in vivo, 336 h, time 14 day
Cytochrome P450 3A4 = Cytochrome P450 3A4 (Homo sapiens, UniProt P08684); experiment: Inhibition of CYP3A4 (unknown origin) using midazolam as substrate preincubated for 5 mins followed by addition of NADPH measured after 20 mins by LC-MS/MS analysis; assay type: ADME
[27] = Acute toxicity in female Sprague-Dawley rat assessed as change in ratio of ovary to body weight at 15 to 200 mg/kg, po administered every alternate days for 2 weeks measured on day 14; assay type: organism-based; conditions: in vivo, 336 h, dose 15-200 mg/kg, time 14 day
[28] = Intrinsic clearance in monkey liver microsome at 1 uM preincubated for 5 mins followed by NADPH addition measured up to 120 mins by LC-MS/MS analysis; assay type: ADME, Macaca mulatta; conditions: rhesus monkey, microsomes, 2 h, time <=125 min
[29] = Acute toxicity in male Sprague-Dawley rat assessed as increase in weight of spleen to body weight at 15 to 200 mg/kg, po administered every alternate days for 2 weeks measured on day 14; assay type: organism-based; conditions: in vivo, 336 h, dose 15-200 mg/kg, time 14 day
[30] = In vivo inhibition of PHD2 in C57BL/6 mouse assessed as increase in EPO plasma level by measuring EPO level at 15 mg/kg, iv measured after 4 hrs by ELISA; assay type: functional
[31] = Acute toxicity in female Sprague-Dawley rat assessed as change in ratio of uterus with cervix to body weight at 15 to 200 mg/kg, po administered every alternate days for 2 weeks measured on day 14; assay type: organism-based; conditions: in vivo, 336 h, dose 15-200 mg/kg, time 14 day
Cytochrome P450 2D6 = Cytochrome P450 2D6 (Homo sapiens, UniProt P10635); experiment: Inhibition of CYP2D6 (unknown origin) using dextromethorphan as substrate preincubated for 5 mins followed by addition of NADPH measured after 20 mins by LC-MS/MS analysis; assay type: ADME
[32] = Acute toxicity in Sprague-Dawley rat assessed as effect on food intake at 15 to 200 mg/kg, po administered every alternate day for 14 day; assay type: organism-based; conditions: in vivo, 336 h, dose 15-200 mg/kg

Cytochrome P450 2D6, sequence (P10635 whole entry): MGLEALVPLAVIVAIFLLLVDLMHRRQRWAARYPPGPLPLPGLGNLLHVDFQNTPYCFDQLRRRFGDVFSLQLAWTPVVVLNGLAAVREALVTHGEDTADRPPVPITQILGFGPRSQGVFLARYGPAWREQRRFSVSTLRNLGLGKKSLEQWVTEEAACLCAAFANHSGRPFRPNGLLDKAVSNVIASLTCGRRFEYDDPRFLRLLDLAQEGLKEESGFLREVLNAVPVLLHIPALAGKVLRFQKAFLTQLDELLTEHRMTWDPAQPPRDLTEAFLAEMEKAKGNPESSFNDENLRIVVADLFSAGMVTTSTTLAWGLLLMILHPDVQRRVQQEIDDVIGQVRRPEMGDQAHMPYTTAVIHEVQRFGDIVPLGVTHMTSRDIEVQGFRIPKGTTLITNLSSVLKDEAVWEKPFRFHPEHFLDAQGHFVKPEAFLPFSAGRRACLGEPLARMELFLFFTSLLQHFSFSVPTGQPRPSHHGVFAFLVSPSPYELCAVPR
Cytochrome P450 3A4, sequence (P08684 whole entry): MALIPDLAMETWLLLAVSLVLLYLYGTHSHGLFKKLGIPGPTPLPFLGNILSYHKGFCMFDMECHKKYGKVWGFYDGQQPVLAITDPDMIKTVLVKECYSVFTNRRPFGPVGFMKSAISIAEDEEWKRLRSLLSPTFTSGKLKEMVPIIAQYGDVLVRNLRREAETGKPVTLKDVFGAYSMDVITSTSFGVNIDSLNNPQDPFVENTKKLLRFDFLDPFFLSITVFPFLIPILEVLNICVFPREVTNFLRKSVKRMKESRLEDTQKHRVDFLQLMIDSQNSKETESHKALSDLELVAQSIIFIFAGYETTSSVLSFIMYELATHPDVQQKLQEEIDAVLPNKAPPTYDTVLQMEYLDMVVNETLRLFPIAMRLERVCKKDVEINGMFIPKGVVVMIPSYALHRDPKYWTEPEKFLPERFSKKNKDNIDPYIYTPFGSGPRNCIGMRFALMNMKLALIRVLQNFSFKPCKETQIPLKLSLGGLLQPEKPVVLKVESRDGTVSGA

Compound: O=C(O)CNC(=O)c1ncc(C#CCOc2ccc(Cl)cc2)cc1O [DDO-3055]
- Activity [1]: Non-Toxic
- AUC(0-inf) [2]: 1370 ng·h/mL
- Activity [3]: Non-Toxic
- half-life at 100 µM [4]: 0.538 h
- clearance [5]: 3.44 mL/min/kg
- Activity [6]: Non-Toxic
- Activity [7]: Non-Toxic
- Activity [8]: Non-Toxic
- Vd [9]: 2.52 L/kg
- half-life [10]: 4.19 h
- Cmax [11]: 1030 ng/mL
- IC50 (Egl nine homolog 1 [12]): 0.0642 µM
- Activity [13]: Non-Toxic
- half-life at 1 µM [14]: > 2.32 h
- Activity [15]: Non-Toxic
- Activity [16]: Non-Toxic
- fold change (FC) (Egl nine homolog 1 [17]): 7
- AUC(0-t) [18]: 611 ng·h/mL
- inhibition (Mus musculus): Dose-dependent effect
- bioavailability [19]: 54%
- Activity (HUVEC): Non-Toxic
- Activity [20]: Non-Toxic
- half-life at 1 µM [21]: > 2.32 h
- inhibition (Egl nine homolog 1 [22]): Dose-dependent effect
- fold change (FC) (Egl nine homolog 1 [23]): 7
- Activity [24]: Non-Toxic
- Activity [25]: Non-Toxic
- Activity [26]: Toxic
- IC50 (Cytochrome P450 3A4): > 30 µM
- Activity [27]: Non-Toxic
- CLH [28]: < 0.013 mL/min/kg
- Activity [29]: Toxic
- Activity [30]: >1000 pg/mL
- Activity [31]: Non-Toxic
- IC50 (Cytochrome P450 2D6): > 30 µM
- Activity [32]: Non-Toxic
